# Measured values reported in patent US12357924B2, “Process for producing enriched fraction from Bacopa monnieri extract for management of neurodegenerative disorders” (STAR HI HERBS PVT LTD, priority 2021, dated 2025).
# What was measured:
# [1] = test system: behavior of rats in elevated plus maze; assay: Elevated plus maze test; format: in vivo, Wistar strain rats; details: 5 minutes test; Bacosane 50 and 100 mg/kg p.o., diazepam 1 mg/kg; vs vehicle
# Description: (§1) In further embodiment of the present invention the anxiolytic effect of Bacopa monnieri extract Bacosane is determined by employing 4 different tests i.e., the elevated plus maze (EPM) test, open field test (OFT), […] test and Light dark transition test. The compounds used in these four tests comprises Bacopa monnieri extract Bacosane; and Diazepam (1 mg/kg, i.p.) which is used as standard anxiolytic agent. The four tests are performed on Wistar strain rats of both sex of weighing 130 to 180 g, which were divided into four groups of six rats each (Group I, Group II, Group III and Group IV)
# (§2) Group I vehicle (normal saline) at a dose of 10 ml/kg body weight
# (§3) Group II received Bacopa monnieri extract Bacosane, at a dose of 50 mg/kg body weight
# (§4) Group III received Bacopa monnieri extract Bacosane, at a dose of 100 mg/kg body weight
# (§5) Group IV received standard drug, diazepam 1 mg/kg body weight
# FIG. 9 depicts comparison of effect of Bacopa monnieri extract Bacosane and diazepam in behavior of rats in elevated plus maze test. […] The percentage of time spent (duration) in open arms and frequency of open arm entries were counted for a period of 5 minutes. […] The percentage of time spent in the open arms and number of open arm entries were calculated using the formulas [100×open/(open+enclosed)] and (100×open/total entries), respectively.
# [2] = test system: locomotor activity of the rats; assay: Actophotometer method (locomotor activity); format: in vivo, Wistar strain rats; details: diazepam 1 mg/kg
# Description: In further embodiment of the present invention the anxiolytic effect of Bacopa monnieri extract Bacosane is determined by employing 4 different tests i.e., the elevated plus maze (EPM) test, open field test (OFT), Astrophotometer test and Light dark transition test. The compounds used in these four tests comprises Bacopa monnieri extract Bacosane; and Diazepam (1 mg/kg, i.p.) which is used as standard anxiolytic agent. The four tests are performed on Wistar strain rats of both sex of weighing 130 to 180 g, which were divided into four groups of six rats each (Group I, Group II, Group III and Group IV)
# In this test, the rats are placed in the digital Actophotometer in which a constant beam of light from six lights will be made to fall on corresponding photoelectric cells. The photoelectric cells get activated when an animal crosses the beam of light and thereby cuts off (crossing) the rays of light falling on it. After 1 hour of Bacopa Monnieri extract Bacosane administration the numbers of crossings are counted for a period of 10 minutes by the actophotometer. […]
# [3] = test system: behavior of rats in open field; assay: Open field test; format: in vivo, Wistar strain rats; details: 5 minutes; Diazepam 1 mg/kg, Bacosane 50 mg/kg and 100 mg/kg; vs normal saline
# Description: as §1, §2, §3, §4, §5
# FIG. 11 depicts comparison of effect of Bacopa monnieri extract Bacosane and Diazepam on behavior of rats in open field test. The apparatus comprises a wooden box (60×60×60 cm). The area of the open field was divided into 16 squares (15×15 cm), the four inner squares in the center and 12 squares in the periphery along the walls. The other identical condition comprises of sound attenuated and dark experimental room. […]
# MES induced convulsion = assay: Maximal electroshock induced seizures (MES) model; format: in vivo, albino Wister rats
# Description: (§6) In further embodiment of the present invention the anticonvulsant activity of Bacopa monnieri extract Bacosane is determined using Pentylenetetrazole (PTZ) and the maximal electroshock seizure (MES) models. The analysis is performed on healthy Swiss mice of either sex, weighing about 25-30 g and Wistar rats of either sex, weighing about 150-200 g. The animals were grouped and housed in polyacrylic cages (38×23×10 cm) with not more than six animals per cage and maintained under standard laboratory conditions (temperature 25° C.) with dark and light cycle (12/12 h). All the animals were acclimatized to laboratory condition for a week before commencement of the analysis. The animals were randomly allocated into four groups of six each: Group I (control group), Group II, Group III, Group IV.
# Group-I received 10 ml/kg of 1% NaCMC p.o. which served as control.
# Group-II received phenytoin sodium (25 mg/kg, orally) as standard controls in MES method and PTZ induced seizures method respectively.
# Group-III and IV were administered two graded doses of Bacopa monnieri extract Bacosane i.e., 50 mg/kg and 100 mg/kg, respectively, p.o.
# In the above analysis the percentage protection of animals was recorded as percentage of reduction in duration of seizures wherein the control group is assumed as 100%. The observations of group II, III and IV were compared with control Group-I. It is observed that Bacopa monnieri extract Bacosane has potential anticonvulsant activity due to the presence of certain active phytoconstituents. The anticonvulsant activity of Bacopa monnieri extract Bacosane involves GABAergic transmission and glutaminergic transmission or sodium channel blockage. However, it can be considered that the Bacopa monnieri extract Bacosane as a potent anticonvulsant supplement. The analysis and observations of Pentylenetetrazole (PTZ) and the maximal electroshock seizure (MES) models is shown in FIG. 3 to FIG. 6.
# FIG. 3 is the graphical representation of effect of Bacopa Monnieri extract Bacosane on tonic extension phase in MES induced convulsion. […]
# [4] = test system: PTZ induced tonic-clonic convulsions; assay: Pentylenetetrazole (PTZ) induced convulsions model; format: in vivo, rats; details: phenytoin sodium 25 mg/kg orally
# Description: as §6
# Group-I received 10 ml/kg of 1% NaCMC p.o. which served as control. […]
# In the above analysis the percentage protection of animals was recorded as percentage of reduction in duration of seizures wherein the control group is assumed as 100%. […]
# FIG. 5 depicts graphical representation of effect of Bacopa Monnieri extract Bacosane on tonic-clonic convolution in Pentylenetetrazole (PTZ) induced model in rats. […] The onset of convulsions, number of animals that convulsed and number of animals that were protected from clonic convulsions were recorded.
# hippocampus = details: sub-chronic and chronic administration, 30 mg/kg; cited from earlier work
# [5] = DPPH free radical scavenging assay; format: biochemical; details: 0.1 mM DPPH in methanol, 30 minutes, absorbance at 517 nm
# Description: The free radical scavenging activity of Bacopa monnieri extract Bacosane and BHT is determined through the process comprising steps of: preparing solution of 0.1 mM DPPH in methanol, and 1.5 mL of this solution was mixed with 1.5 mL of extract in methanol at different concentrations (50, 100, 150, 200 and 250 m/mL); and measuring the absorbance at 517 nm, after leaving the above mixture for 30 minutes of incubation at dark room. Butylated hydroxytoluene (BHT) was used as the reference standard at different concentrations (20, 40, 60, 80 and 100 m/m1). The radical scavenging activity of DPPH was calculated using the following equation: [A0-A1)/A0]×100 where A0 is the absorbance of the control, and A1 is the absorbance of the standard. Then the percentage (%) of inhibition was plotted against concentration of the Bacopa monnieri extract Bacosane and BHT, and from the graph as shown in FIGS. 7A-7B half-maximal inhibitory concentration (IC50) was calculated to determine the efficacy of Bacopa monnieri extract Bacosane in comparison to standard butylated hydroxytoluene (BHT).
structure (smiles),measurement,setting,value
CN1C(=O)CN=C(c2ccccc2)c2cc(Cl)ccc21 [Diazepam],closed arm number of entries and time spent,[1],significantly decreased
same,percentage of number of open arm entries and time spent in open arm,[1],significant increase
same,number of crossings of light beams compared to control group,[2],significantly reduced
same,"anxiolysis (increased ambulation, rearing and preening, decreased defecations)",[3],significantly exhibited anxiolysis
"O=C1NC(=O)C(c2ccccc2)(c2ccccc2)N1 [Phenytoin, phenytoin sodium]",hind limb tonic extension,"MES induced convulsion; MES model, compared to control group",decreased
same,extensor phase,"MES induced convulsion; MES model, phenytoin sodium 25 mg/kg orally",abolished the extensor phase completely
same,protection in animals against MES,MES induced convulsion; phenytoin sodium 25 mg/kg orally,100%
same,"anticonvulsant effect (latency, onset of clonic convulsions, onset of tonic seizures)","[4]; PTZ 90 mg/kg i.p., Bacosane 50 and 100 mg/kg orally",significantly anticonvulsant activity
same,protection,[4]; PTZ model,100%
C[C@H]1[C@H](C)CC[C@]2(C(=O)O)CC[C@]3(C)C(=CC[C@@H]4[C@@]5(C)C[C@@H](O)[C@H](O)[C@@](C)(CO)[C@@H]5CC[C@]43C)[C@H]12 [asiatic acid],cell proliferation in the hippocampus,hippocampus,increase
same,spatial working memory,hippocampus,stimulate
"Cc1cc(C(C)(C)C)c(O)c(C(C)(C)C)c1 [butylated hydroxytoluene (BHT), butylated hydroxytoluene]","half-maximal inhibitory concentration (IC50), DPPH free radical scavenging",[5],150.50 µg/mL
